Data published in PubChem BioAssay AID248 (DTP/NCI, 2004).
Where “and” joins values, the source holds several entries; their conditions need not be identical. Identical values can stand only once. Inconclusive results and toxic doses are left out. Rule as the data show it: active = T/C of 150% or more; inactive = T/C below 125%.

System: L1210 leukemia ip in BDF1 mice, survival T/C
Experiment: NCI In Vivo Anticancer Drug Screen. Data for tumor model L1210 Leukemia (intraperitoneal) in B6D2F1 (BDF1) mice
Details: endpoint: mean survival time, higher = longer survival
Procedure, shortened: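 In this screen, tumor-bearing mice given compound are compared to those given vehicle, and their survival values are reported as a treated-to-control quotient.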

[1] = dose: 100.0 mg/kg/injection, schedule: Q01DX001 (ip), vehicle: saline
[2] = dose: 100.0 mg/kg/injection, schedule: Q01DX009 (ip), vehicle: saline
[3] = dose: 100.0 mg/kg/injection, schedule: Q04DX003 (ip), vehicle: saline
[4] = dose: 200.0 mg/kg/injection, schedule: Q01DX001 (ip), vehicle: saline
[5] = dose: 200.0 mg/kg/injection, schedule: Q01DX009 (ip), vehicle: saline
[6] = dose: 200.0 mg/kg/injection, schedule: Q04DX003 (ip), vehicle: saline
[7] = dose: 400.0 mg/kg/injection, schedule: Q01DX001 (ip), vehicle: saline
[8] = dose: 400.0 mg/kg/injection, schedule: Q01DX009 (ip), vehicle: saline
[9] = dose: 400.0 mg/kg/injection, schedule: Q04DX003 (ip), vehicle: saline
[10] = dose: 100.0 mg/kg/injection, schedule: Q01DX009 (ip), vehicle: Klucel (hydroxypropylcellulose) (HPC)
[11] = dose: 100.0 mg/kg/injection, schedule: Q04DX003 (ip), vehicle: Klucel (hydroxypropylcellulose) (HPC)
[12] = dose: 200.0 mg/kg/injection, schedule: Q04DX003 (ip), vehicle: Klucel (hydroxypropylcellulose) (HPC)
[13] = dose: 400.0 mg/kg/injection, schedule: Q04DX003 (ip), vehicle: Klucel (hydroxypropylcellulose) (HPC)
[14] = dose: 100.0 mg/kg/injection, schedule: Q01DX001 (ip), vehicle: carboxymethylcellulose (CMC)
[15] = dose: 200.0 mg/kg/injection, schedule: Q01DX001 (ip), vehicle: carboxymethylcellulose (CMC)
[16] = dose: 400.0 mg/kg/injection, schedule: Q01DX001 (ip), vehicle: carboxymethylcellulose (CMC)
[17] = dose: 50.0 mg/kg/injection, schedule: Q01DX001 (ip), vehicle: carboxymethylcellulose (CMC)

Measured: T/C

CCOC(=O)c1csc(CCNC(=O)c2ccccc2)n1
inactive: [1] 99 % of control | [2] 108 % of control | [3] 96 % of control | [4] 102 % of control | [5] 97 % of control | [6] 98 % of control | [7] 96 % of control | [8] 100 % of control | [9] 95 % of control

[Br][Sn]([Br])([CH]1CCCCC1)[CH]1CCCCC1
inactive: dose: 9.38 mg/kg/injection, schedule: Q01DX001 (ip), vehicle: other 91 % of control | dose: 18.75 mg/kg/injection, schedule: Q01DX001 (ip), vehicle: other 93 % of control

C/C=C(\Br)C(=O)N1CCCCC1
inactive: [1] 94 % of control | [4] 100 % of control | [7] 95 % of control

COc1cc(OC)c(-c2nc3ccc(C)cc3c(=O)o2)cc1OC
inactive: dose: 100.0 mg/kg/injection, schedule: Q04DX002 (ip), vehicle: saline with Tween-80 103 % of control | dose: 200.0 mg/kg/injection, schedule: Q04DX002 (ip), vehicle: saline with Tween-80 100 % of control | dose: 400.0 mg/kg/injection, schedule: Q04DX002 (ip), vehicle: saline with Tween-80 103 % of control

COc1ccc(C2NC(=O)N3C(c4ccc(OC)c(OC)c4)NC(=O)N23)cc1OC (stereo not drawn)
inactive: dose: 100.0 mg/kg/injection, schedule: Q04DX002 (ip), vehicle: gum acacia 98 % of control | dose: 200.0 mg/kg/injection, schedule: Q04DX002 (ip), vehicle: gum acacia 102 % of control | dose: 400.0 mg/kg/injection, schedule: Q04DX002 (ip), vehicle: gum acacia 105 % of control

CC(C)C1=CC23CCC4C(C)(C(=O)O)CCCC4(C)C2CC1C1(Cl)C(Cl)=C(Cl)C(Cl)(Cl)C31Cl (stereo not drawn)
inactive: dose: 75.0 mg/kg/injection, schedule: Q01DX001 (ip), vehicle: other 89 % of control | dose: 150.0 mg/kg/injection, schedule: Q01DX001 (ip), vehicle: other 89 % of control

O=C1C(I)=CC(=C(c2cc(I)c(O)c(I)c2)c2ccccc2C(=O)O)C=C1I
inactive: [10] 94 % of control | [11] 98 % of control | dose: 200.0 mg/kg/injection, schedule: Q01DX009 (ip), vehicle: Klucel (hydroxypropylcellulose) (HPC) 89 % of control | [12] 98 % of control | dose: 400.0 mg/kg/injection, schedule: Q01DX009 (ip), vehicle: Klucel (hydroxypropylcellulose) (HPC) 98 % of control | [13] 98 % of control

c1nc(NCCc2cnc[nH]2)c2[nH]cnc2n1
inactive: [14] 95 % of control | [15] 90 % of control | [16] 97 % of control

Cc1ccc(C(=O)C(C)(C)C)c(C)c1
inactive: [2] 97 % of control | [5] 97 % of control | [8] 93 % of control

O=P(Cc1ccccc1)(C(O)c1ccccc1)C(O)c1ccccc1 (stereo not drawn)
inactive: [11] 87 % of control | [12] 91 % of control

Cc1ccc(NC(=O)NCCCl)cc1
inactive: [17] 97 % of control | [14] 97 % of control | [15] 113 % of control | [16] 100 % of control

O=C(Nc1cc(NC(=O)Nc2cccc(C3=NCCN3)c2)cc(C(=O)O)c1)Nc1cccc(C2=NCCN2)c1
inactive: dose: 15.0 mg/kg/injection, schedule: Q01DX Z (ip), vehicle: carboxymethylcellulose (CMC) 96 % of control | dose: 30.0 mg/kg/injection, schedule: Q01DX Z (ip), vehicle: carboxymethylcellulose (CMC) 96 % of control | dose: 60.0 mg/kg/injection, schedule: Q01DX Z (ip), vehicle: carboxymethylcellulose (CMC) 94 % of control | dose: 120.0 mg/kg/injection, schedule: Q01DX Z (ip), vehicle: carboxymethylcellulose (CMC) 100 % of control and 106 % of control | dose: 240.0 mg/kg/injection, schedule: Q01DX Z (ip), vehicle: carboxymethylcellulose (CMC) 104 % of control

NC(=S)N/N=C1\COC(C(F)(F)F)(C(F)(F)F)C1
inactive: dose: 12.5 mg/kg/injection, schedule: Q01DX009 (ip), vehicle: Klucel (hydroxypropylcellulose) (HPC) 100 % of control | dose: 25.0 mg/kg/injection, schedule: Q01DX009 (ip), vehicle: Klucel (hydroxypropylcellulose) (HPC) 97 % of control | dose: 50.0 mg/kg/injection, schedule: Q01DX009 (ip), vehicle: Klucel (hydroxypropylcellulose) (HPC) 96 % of control | [10] 97 % of control and 100 % of control | [11] 103 % of control | [12] 105 % of control

Cc1noc2c1ncc[n+]2[O-]
inactive: dose: 5.0 mg/kg/injection, schedule: Q01DX009 (ip), vehicle: saline with Tween-80 89 % of control | dose: 10.0 mg/kg/injection, schedule: Q01DX009 (ip), vehicle: saline with Tween-80 91 % of control | dose: 20.0 mg/kg/injection, schedule: Q01DX009 (ip), vehicle: saline with Tween-80 86 % of control

CCCCCCCC(=O)N1C2CN3C4=C(C(=O)C(N)=C(C)C4=O)C(COC(N)=O)C3(OC)C21 (stereo not drawn)
inactive: dose: 6.6 mg/kg/injection, schedule: Q01DX001 (ip), vehicle: acetone 115 % of control | dose: 9.9 mg/kg/injection, schedule: Q01DX001 (ip), vehicle: acetone 113 % of control

COc1ccc(/C=N\NC(=O)CNC(=O)Nc2cccc([N+](=O)[O-])c2)cc1O
inactive: dose: 50.0 mg/kg/injection, schedule: Q01DX009 (ip), vehicle: saline with Tween-80 93 % of control | dose: 100.0 mg/kg/injection, schedule: Q01DX009 (ip), vehicle: saline with Tween-80 100 % of control | dose: 200.0 mg/kg/injection, schedule: Q01DX009 (ip), vehicle: saline with Tween-80 96 % of control

NC(=O)SCC(N)C(=O)O (stereo not drawn)
inactive: [17] 101 % of control | [14] 90 % of control | [3] 104 % of control | [15] 95 % of control | [6] 110 % of control | [16] 101 % of control | [9] 116 % of control

CCCCNCCC[P+](c1ccccc1)(c1ccccc1)c1ccccc1
inactive: dose: 25.0 mg/kg/injection, schedule: Q04DX002 (ip), vehicle: saline 115 % of control | dose: 50.0 mg/kg/injection, schedule: Q04DX002 (ip), vehicle: saline 98 % of control | dose: 100.0 mg/kg/injection, schedule: Q04DX002 (ip), vehicle: saline 105 % of control

[O-][n+]1c2ccccc2nc2ccccc21
inactive: [11] 98 % of control | [12] 98 % of control | [13] 89 % of control

O=C1C=CCC2c3nc4ccccc4cc3CN12 (stereo not drawn)
inactive: dose: 37.5 mg/kg/injection, schedule: Q04DX003 (ip), vehicle: saline 95 % of control | dose: 75.0 mg/kg/injection, schedule: Q04DX003 (ip), vehicle: saline 93 % of control | dose: 150.0 mg/kg/injection, schedule: Q04DX003 (ip), vehicle: saline 95 % of control

Nc1ccccc1C1OCCO1
inactive: [17] 95 % of control | [14] 95 % of control | [15] 95 % of control | [16] 101 % of control

Cc1ccc(NC(=O)Nc2cccc(C(F)(F)F)c2)cc1Cl
inactive: dose: 100.0 mg/kg/injection, schedule: Q01DX009 (ip), vehicle: gum acacia 92 % of control | dose: 200.0 mg/kg/injection, schedule: Q01DX009 (ip), vehicle: gum acacia 89 % of control | dose: 400.0 mg/kg/injection, schedule: Q01DX009 (ip), vehicle: gum acacia 91 % of control

Nc1cccc(OCCOc2ccc([N+](=O)[O-])cc2)c1
inactive: [1] 102 % of control | [4] 104 % of control | [7] 100 % of control

C1CN(P(N2CCOCC2)N2CCOCC2)CCO1
inactive: [2] 104 % of control | [5] 98 % of control | [8] 98 % of control
